According to patent US20160151369A1, “SUBSTITUTED 3-PHENYLPROPYLAMINE DERIVATIVES FOR THE TREATMENT OF OPHTHALMIC DISEASES AND DISORDERS” (ACUCELA INC., priority 2013, published 2016):
Like-named read-outs stand apart in the source and are kept apart here.

Key:
[1] = tested on: regeneration of 11-cis-retinal (isomerase); assay: Single dose time course in the in vivo isomerase assay at 0.3 mg/kg (compound A vs compound D); conditions: BALB/c mice, single oral dose 0.3 mg/kg; for inhibition at 0.3 mg/kg: Mus musculus, read-out: Percent Inhibition, 0.3 mg/kg, Avg. % Inhibition
Method: (§1) All test compounds were stored at room temperature, dessicated.
On the day prior to dose administration 3-amino-1-(3-((tetrahydro-2H-pyran-4-yl)methoxy)phenyl)propan-1-ol (compound A) and 3-amino-1-(3-((tetrahydro-2H-pyran- 2-yl)methoxy)phenyl)propan-1-ol (compound D) were weighed into new empty glass vials. The compounds were dissolved in di-water at the concentration of 0.068 mg/mL and stored overnight at 4° C.
52 Male BALB/c mice (Charles River Laboratories) were used for this study. The mice were approximately 8 weeks at the initiation of dosing with an average body weight of 23 grams.
The day prior to dose administration 52 BALB/c mice were placed into a dark room and dark adapted for a minimum of 12 hours prior to dose administration. The mice were maintained in the dark for the duration of the study.
Each animal was removed from its cage and dosed accordingly to the study design in Table 10 (see below). Each animal was administered 0.1 mL of the appropriate test article or vehicle orally using a 1 mL syringe fitted with a 23 gauge oral gavage needle. At 2, 4, 6, 8, 16 or 24 hours following dose administration, animals were removed from the dark and exposed to 5000 Lux white light for 10 minutes to photobleach their eyes. Following the completion of the photobleach the animals were returned to the dark for 2 hours to allow for the regeneration of 11-cis-retinal in the eyes. Two hours after photobleaching each animal was euthanized with carbon dioxide followed by cervical dislocation, in the dark under red light. The light control group was euthanized immediately following photobleaching. Immediately following the cervical dislocation both eyes of each animal were removed and transferred into separate tubes, flash frozen in liquid nitrogen and stored in the dark at −80° C. until processing and analysis.
(§2) All sample processing procedures were performed in the dark under red light.
Extracted samples were analyzed using an Agilent 1100 HPLC system according to the procedure outlined in Table 12 (see below)
(§3) HPLC analysis of the eyes measures the peak area units of the 110 cis-Ral-Oxime_syn. Signal.
(§4) Data analysis % inhibition (drug vs. recovery control). % control (drug vs. light control), and One-way ANOVA (followed by Tukey's Multiple Comparison) were performed using peak area units and performed by Prism software. Data are represented as mean and standard deviation.

[2] = tested on: retinal isomerase activity (regeneration of 11-cis-retinal); assay: Comparative in vivo murine isomerase assay, dose response (compound A vs compound D); set-up: species or system BALB/c mice
Method: as §1
On the day prior to dose administration compound A and compound D were weighed into new empty glass vials. The compounds were dissolved in di-water at the concentration of 0.833 mg/mL compound A and 0.892 mg/mL compound D, serially diluted into various concentrations, and stored overnight at 4 OC.
56 Male BALB/c mice (Charles River Laboratories) were used for this study. The mice were approximately 8 weeks at the initiation of dosing with an average body weight of 24 grams.
The day prior to dose administration 56 BALB/c mice were placed into a dark room and dark adapted for a minimum of 12 hours prior to dose administration. The mice were maintained in the dark for the duration of the study.
Each animal was removed from its cage and dosed accordingly to the study design in Table 4 (see below). Each animal was administered 0.1 mL of the appropriate compound or vehicle via oral gavage using a 1 mL syringe fitted with a 23 gauge oral gavage needle. Two hours following dose administration, animals were removed from the dark and exposed to 5000 Lux white light for 10 minutes to photobleach their eyes.
Following the completion of the photobleach the animals were returned to the dark for 2 hours to allow for the regeneration of 11-cis-retinal in the eyes. Two hours after photobleaching each animal was euthanized with carbon dioxide followed by cervical dislocation, in the dark under red light. The light control group was euthanized immediately following photobleaching. Immediately following the cervical dislocation both eyes of each animal were removed and transferred into separate tubes, flash frozen in liquid nitrogen and stored in the dark at −80° C. until processing and analysis.
as §2
Extracted samples were analyzed using an Agilent 1100 HPLC system according to the procedure outlined in Table 6 (see below)
as §3, §4

[3] = tested on: isomerase (recovery of 11-cis-retinal after bleaching); assay: In vivo murine isomerase assay (Table 3); conditions: Mus musculus, po, 4 h, mice, Dose 1 mg/kg
Method: The capability of compounds described herein to inhibit isomerase was determined by an in vivo murine isomerase assay. […] The recovery of 11-cis-retinal after bleaching can be used to estimate the activity of isomerase in vivo. Delayed recovery, as represented by lower 11-cis-retinal oxime levels, indicates inhibition of isomerization reaction.
Mice were gavaged with the test compound. […] The mice were allowed to recover 2 hours in the dark. The animals were then sacrificed by carbon dioxide inhalation. Retinoids were extracted from the eye and the regeneration of 11-cis-retinal was assessed at various time intervals.
After the mice were sacrificed, the eyes were immediately removed and placed in liquid nitrogen for storage.
The eyes were placed in 500 μL of bis-tris propane buffer (10 mM, pH˜7.3) and 20 μL of 0.8M hydroxile amine (pH˜7.3). The eyes were cut up into small pieces with small iris scissors and then thoroughly homogenized at 30000 rpm with a mechanical homogenizer (Polytron PT 1300 D) in the tube until no visible tissue remained. 500 μL of methanol and 500 μL of heptane were added to each tube. The tubes were attached to a vortexer so that the contents were mixed thoroughly for 15 minutes in room temperature. The organic phase was separated from the aqueous phase by centrifugation for 10 min at 13K rpm, 4° C. 240 μL of the solution from the top layer (organic phase) was removed and transferred to clean 300 μl glass inserts in HPLC vials using glass pipette and the vials were crimped shut tightly.
The samples were analyzed on an Agilent 1100 HPLC system with normal phase column: SILICA (Beckman Coutlier, dp 5 μm, 4.6 mM×250 mM). […] Loading volume for each sample was 100 μl; detection wavelength was 360 nm. The area under the curve for 11-cis retinal oxime was calculated by Agilent Chemstation software and was recorded manually. Data processing was performed using Prizm software.
Positive control mice (no compound administered) were sacrificed fully dark-adapted and the eye retinoids analyzed. Light (bleached) control mice (no compound administered) were sacrificed and retinoids isolated and analyzed immediately after light treatment.
A time course study was performed to determine the isomerase inhibitory activity of the test compound. […] The animals were then “photo-bleached” (5000 Lux white light for 10 minutes) at 2, 4, 8, 16 and 24 hours after dosing, and returned to darkness to allow recovery of the 11-cis-retinal content of the eyes. Mice were sacrificed 2 hours after bleaching, eyes were enucleated, and retinoid content is analyzed by HPLC.
Recovery control mice (vehicle-only treated) were light-treated and left to recover for 2 hours in the dark before sacrifice and analysis. Light control mice (vehicle only treated) were sacrificed for analysis immediately after photo-bleaching.
An in vivo dose response isomerase inhibition study was performed with test compound. […] Recovery and retinoid analysis were performed as described above. Dark control mice were vehicle-only treated, sacrificed fully dark adapted without light treatment, and analyzed. Recovery control mice and light control mice were included in the study as per the initial phase.

SMILES: NCCC(O)c1cccc(OCC2CCCCO2)c1 (centres unmarked) [compound D, reference compound]
- Percent Control, 0.3 mg/kg (average) ([1]; Time Point 2 Hours): 86.8%
- Percent Control, 0.3 mg/kg (average) ([1]; Time Point 4 Hours): 101.8%
- Percent Control, 0.3 mg/kg (average) ([1]; Time Point 6 Hours): 87.9%
- Percent Control, 0.3 mg/kg (average) ([1]; Time Point 8 Hours): 94.6%
- Percent Control, 0.3 mg/kg (average) ([1]; Time Point 16 Hours): 104.1%
- Percent Control, 0.3 mg/kg (average) ([1]; Time Point 24 Hours): 89.5%
- inhibition at 0.3 mg/kg ([1]; Time Point 2 Hours): 13.2%
- inhibition at 0.3 mg/kg ([1]; Time Point 4 Hours): -1.8%
- inhibition at 0.3 mg/kg ([1]; Time Point 6 Hours): 12.1%
- inhibition at 0.3 mg/kg ([1]; Time Point 8 Hours): 5.4%
- inhibition at 0.3 mg/kg ([1]; Time Point 16 Hours): -4.1%
- inhibition at 0.3 mg/kg ([1]; Time Point 24 Hours): 10.5%
- dose at which 11-cis-retinal recovery was inhibited by 50% (called IC50) ([2]; BALB/c mice, single oral dose, 2 h, dose response experiment): 0.59 mg/kg
- inhibition at 0.03 mg/kg ([2]; Mus musculus, po, 2 h, BALB/c mice, single oral dose 0.03 mg/kg, bleach 2 h after dose, drug vs. recovery control, read-out: Percent Inhibition at 2 Hours, Avg. % Inhibition): -5.3%
- inhibition at 0.1 mg/kg ([2]; Mus musculus, po, 2 h, BALB/c mice, single oral dose 0.1 mg/kg, bleach 2 h after dose, drug vs. recovery control, read-out: Percent Inhibition at 2 Hours, Avg. % Inhibition): -23.9%
- inhibition at 0.3 mg/kg ([2]; Mus musculus, po, 2 h, BALB/c mice, single oral dose 0.3 mg/kg, bleach 2 h after dose, drug vs. recovery control, read-out: Percent Inhibition at 2 Hours, Avg. % Inhibition): -2.1%
- inhibition at 0.5 mg/kg ([2]; Mus musculus, po, 2 h, BALB/c mice, single oral dose 0.5 mg/kg, bleach 2 h after dose, drug vs. recovery control, read-out: Percent Inhibition at 2 Hours, Avg. % Inhibition): 41.4%
- inhibition at 1 mg/kg ([2]; Mus musculus, po, 2 h, BALB/c mice, single oral dose 1 mg/kg, bleach 2 h after dose, drug vs. recovery control, read-out: Percent Inhibition at 2 Hours, Avg. % Inhibition): 70.2%
- inhibition at 3 mg/kg ([2]; Mus musculus, po, 2 h, BALB/c mice, single oral dose 3 mg/kg, bleach 2 h after dose, drug vs. recovery control, read-out: Percent Inhibition at 2 Hours, Avg. % Inhibition): 100%
- activity at 0.03 mg/kg ([2]; Mus musculus, BALB/c mice, single oral dose 0.03 mg/kg, bleach 2 h after dose, read-out: Percent control at 2 Hours (Avg. % Inhibition)): 105%
- activity at 0.1 mg/kg ([2]; Mus musculus, BALB/c mice, single oral dose 0.1 mg/kg, bleach 2 h after dose, read-out: Percent control at 2 Hours (Avg. % Inhibition)): 124%
- activity at 0.5 mg/kg ([2]; Mus musculus, BALB/c mice, single oral dose 0.5 mg/kg, bleach 2 h after dose, read-out: Percent control at 2 Hours (Avg. % Inhibition)): 58.6%
- activity at 1 mg/kg ([2]; Mus musculus, BALB/c mice, single oral dose 1 mg/kg, bleach 2 h after dose, read-out: Percent control at 2 Hours (Avg. % Inhibition)): 29.8%
- activity at 3 mg/kg ([2]; Mus musculus, BALB/c mice, single oral dose 3 mg/kg, bleach 2 h after dose, read-out: Percent control at 2 Hours (Avg. % Inhibition)): 0%
- dose showing nearly 100% inhibition ([2]; dose response experiment, 2 h): 3.0 mg/kg
- inhibition at 1 mg/kg [3]: 57%
